Measurements: patent US20210300894A1, “CRYSTALLINE FORM OF N-[1-(5-CYANO-PYRIDIN-2-YLMETHYL)-1 H-PYRAZOL-3-YL]-2-[4-(1-TRIFLUO-ROMETHYL-CYCLOPROPYL)-PHENYL]-ACETAMIDE” (IDORSIA PHARMACEUTICALS LTD, priority 2017, published 2021)

Assay: Gravimetric vapour sorption (GVS) analysis, moisture sorption at 25° C.
Format: physicochemical
Conditions: stepping mode in steps of 5% RH, classification according to Ph. Eur.
Procedure: Gravimetric Vapour Sorption (GVS) Analysis
Measurements were performed on an IGASORP Model HAS-036-080 moisture sorption instrument (Hiden Isochema, Warrington, UK) operated in stepping mode at 25° C. The sample was allowed to equilibrate at the starting relative humidity (RH) before starting a pre-defined humidity program in steps of 5% ARH and with a maximal equilibration time of 24 hours per step. About 20 to 30 mg of each sample was used.

Moisture sorption at 25° C. (GVS), hygroscopicity according to Ph. Eur.: not hygroscopic according to Ph. Eur
SMILES: N#Cc1ccc(Cn2ccc(NC(=O)Cc3ccc(C4(C(F)(F)F)CC4)cc3)n2)nc1 [COMPOUND in crystalline form 1, N-[1-(5-cyano-pyridin-2-ylmethyl)-1H-pyrazol-3-yl]-2-[4-(1-trifluoromethyl-cyclopropyl)-phenyl]-acetamide]
